According to PubChem BioAssay (NCI):
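Interpolation was linear, between the two tested concentrations surrounding the appropriate level; five concentrations were tested over 48 hours in 96-well plates. GI50 marks 50% less growth. TGI denotes the concentration required for complete inhibition of growth.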

Columns and labels:
Experiment in all cases: NCI tumour cell line growth inhibition, 48 h
[1] = test system: 786-0 renal
[2] = test system: A498 renal
[3] = test system: A549 NSCLC
[4] = test system: ACHN renal
[5] = test system: BT-549 breast
[6] = test system: CAKI-1 renal
[7] = test system: CCRF-CEM leukemia
[8] = test system: COLO 205 colon
[9] = test system: DU-145 prostate
[10] = test system: EKVX NSCLC
[11] = test system: HCC-2998 colon
[12] = test system: HCT-116 colon
[13] = test system: HCT-15 colon
[14] = test system: HL-60(TB) leukemia
[15] = test system: HOP-62 NSCLC
[16] = test system: HOP-92 NSCLC
[17] = test system: HS 578T breast
[18] = test system: HT29 colon
[19] = test system: IGROV1 ovarian
[20] = test system: K-562 leukemia
[21] = test system: KM12 colon
[22] = test system: LOX IMVI melanoma
[23] = test system: M14 melanoma
[24] = test system: MALME-3M melanoma
[25] = test system: MCF7 breast
[26] = test system: MDA-MB-231 breast
[27] = test system: MDA-MB-435
[28] = test system: MOLT-4 leukemia
[29] = test system: NCI-H226 lung
[30] = test system: NCI-H23 lung
[31] = test system: NCI-H460 lung
[32] = test system: NCI-H522 lung
[33] = test system: NCI/ADR-RES ovarian
[34] = test system: OVCAR-3 ovarian
[35] = test system: OVCAR-4 ovarian
[36] = test system: OVCAR-5 ovarian
[37] = test system: OVCAR-8 ovarian
[38] = test system: PC-3 prostate
[39] = test system: RPMI-8226 leukemia
[40] = test system: RXF 393 renal
[41] = test system: SF-268 CNS
[42] = test system: SF-295 CNS
[43] = test system: SF-539 CNS
[44] = test system: SK-MEL-2 melanoma
[45] = test system: SK-MEL-28 melanoma
[46] = test system: SK-MEL-5 melanoma
[47] = test system: SK-OV-3 ovarian
[48] = test system: SN12C renal
[49] = test system: SNB-19 CNS
[50] = test system: SNB-75 CNS
[51] = test system: SR leukemia
[52] = test system: SW-620 colon
[53] = test system: T-47D breast
[54] = test system: TK-10 renal
[55] = test system: U251 CNS
[56] = test system: UACC-257 melanoma
[57] = test system: UACC-62 melanoma
[58] = test system: UO-31 renal

Q: What does the source list for `COc1ccc2c(c1)C(=O)c1c-2c(OCCN2CCCCC2)nc2ccc(OC)cc12`?
A: GI50 [1]: 1040 nM; TGI [1]: 2590 nM; GI50 [2]: 1040 nM; TGI [2]: 4730 nM; GI50 [3]: 674 nM; TGI [3]: 2160 nM; GI50 [4]: 425 nM; TGI [4]: 3260 nM; GI50 [5]: 8260 nM; TGI [5]: 23300 nM; GI50 [6]: 342 nM; TGI [6]: 2960 nM; GI50 [7]: 197 nM; TGI [7]: 2660 nM; GI50 [8]: 723 nM; TGI [8]: 11100 nM; GI50 [9]: 519 nM; TGI [9]: 2190 nM; GI50 [10]: 1000 nM; TGI [10]: 4120 nM; GI50 [11]: 1230 nM; TGI [11]: 9240 nM; GI50 [12]: 393 nM; TGI [12]: 1640 nM; GI50 [13]: 540 nM; TGI [13]: 2630 nM; GI50 [14]: 1080 nM; TGI [14]: 6640 nM; GI50 [15]: 595 nM; TGI [15]: 11200 nM; GI50 [16]: 2410 nM; TGI [16]: 19700 nM; GI50 [17]: 4500 nM; TGI [17]: 22800 nM; GI50 [18]: 435 nM; TGI [18]: 2700 nM; GI50 [19]: 708 nM; TGI [19]: 6580 nM; GI50 [20]: 413 nM; TGI [20]: 2760 nM; GI50 [21]: 585 nM; TGI [21]: 2100 nM; GI50 [22]: 420 nM; TGI [22]: 1730 nM; GI50 [23]: 904 nM; TGI [23]: 6870 nM; GI50 [24]: 1270 nM; TGI [24]: 4470 nM; GI50 [25]: 275 nM; TGI [25]: 2050 nM; GI50 [26]: 2710 nM; TGI [26]: 15300 nM; GI50 [27]: 648 nM; TGI [27]: 2280 nM; GI50 [28]: 305 nM; TGI [28]: 1810 nM; GI50 [29]: 705 nM; TGI [29]: 2820 nM; GI50 [30]: 1120 nM; TGI [30]: 7680 nM; GI50 [31]: 286 nM; TGI [31]: 1100 nM; GI50 [32]: 523 nM; TGI [32]: 2110 nM; GI50 [33]: 761 nM; TGI [33]: 10300 nM; GI50 [34]: 892 nM; TGI [34]: 2670 nM; GI50 [35]: 1360 nM; TGI [35]: 10700 nM; GI50 [36]: 3740 nM; TGI [36]: 19700 nM; GI50 [37]: 601 nM; TGI [37]: 4670 nM; GI50 [38]: 2330 nM; TGI [38]: 21300 nM; GI50 [39]: 474 nM; TGI [39]: 2670 nM; GI50 [40]: 1900 nM; TGI [40]: 11000 nM; GI50 [41]: 461 nM; TGI [41]: 9460 nM; GI50 [42]: 529 nM; TGI [42]: 15200 nM; GI50 [43]: 693 nM; TGI [43]: 12400 nM; GI50 [44]: 12400 nM; TGI [44]: 28600 nM; GI50 [45]: 3520 nM; TGI [45]: 12800 nM; GI50 [46]: 1920 nM; TGI [46]: 5610 nM; GI50 [47]: 2020 nM; TGI [47]: 16400 nM; GI50 [48]: 429 nM; TGI [48]: 10100 nM; GI50 [49]: 660 nM; TGI [49]: 15100 nM; GI50 [50]: 1270 nM; TGI [50]: 11200 nM; GI50 [51]: 235 nM; TGI [51]: 1250 nM; GI50 [52]: 269 nM; TGI [52]: 2190 nM; GI50 [53]: 3440 nM; TGI [53]: 25800 nM; GI50 [54]: 4510 nM; TGI [54]: 16700 nM; GI50 [55]: 513 nM; TGI [55]: 1790 nM; GI50 [56]: 2070 nM; TGI [56]: 6900 nM; GI50 [57]: 1350 nM; TGI [57]: 6300 nM; GI50 [58]: 259 nM; TGI [58]: 1670 nM
